Earlier results as cited in publication PMC5358987 (Drug Design, Development and Therapy, 2017).

For O=C(O)[C@@H]1CSC(c2ccc(O)cc2O)N1 (mixture of isomers) [MHY384, (2RS,4R)-2-(2,4-dihydroxyphenyl)thiazolidine-4-carboxylic acid], the “Tyrosinase inhibition” value (tyrosinase) is listed as “potent competitive tyrosinase inhibitors” and the “Reduction of melanogenesis” value (HRM2 hairless mice) is listed as “effectively reduce melanogenesis”.
